Here are results for one substance from patent US20150315212A1, “SUBSTITUTED 1,4-DITHIINE DERIVATIVES AND THEIR USE AS FUNGICIDES” (BASF SE, priority 2012, published 2015).

The subject of one assay is Septoria tritici. In words: Preventative control of leaf blotch on wheat (Example 4). Format: in vivo. Particulars: 500 ppm, sprayed the day before inoculation, wheat seedlings, assessed after 4 weeks; untreated plants 90% infected.
The next assay has as its system Phakopsora pachyrhizi. In words: Protective control of soy bean rust on soy beans (Example 5). Format: in vivo. As to conditions: 500 ppm, sprayed to run-off 1 day before inoculation, soy bean seedlings, assessed after fourteen days; untreated plants 90% infected.
A further assay concerns Alternaria solani. Particulars: 500 ppm, sprayed the day before inoculation, tomato seedlings, assessed after 5 days; untreated plants 90% infected.

Protocol for Alternaria solani: Preventative Fungicidal Control of Early Blight on Tomatoes (Alternaria solani)
Young seedlings of tomato plants were grown in pots. These plants were sprayed to run-off with an aqueous suspension, containing the concentration of active ingredient or mixture mentioned in the table below. The next day, the treated plants were inoculated with an aqueous suspension of Alternaria solani. Then the trial plants were immediately transferred to a humid chamber. After 5 days at 18 to 20° C. and a relative humidity close to 100%, the extent of fungal attack on the leaves was visually assessed as % diseased leaf area.

On to “6-Methyl-5H-Pyrrolo[3″,4″:5,6][1,4]dithiino-[2,3-C]isothiazole-3-carbonitrile-5,7(6H)-dione [Example 1.1]”, for which the “infection (% diseased leaf area)” value in the assay with Septoria tritici is recorded as “less than or equal to 3%”; with Phakopsora pachyrhizi, “less than or equal to 1%”; with Alternaria solani, “less than or equal to 5%”.
